Laboratory results taken from paper PMC9698716, “From Serendipity to Rational Identification of the 5,6,7,8-Tetrahydrobenzo[4,5]thieno[2,3-d]pyrimidin-4(3H)-one Core as a New Chemotype of AKT1 Inhibitors for Acute Myeloid Leukemia” (Pharmaceutics, 2022).

Legend:
cleaved-PARP = test: Western blot of apoptosis marker in AML cell lines; format: cell-based, human; settings: 5 µM, 48 h
Experimental: Immunoblotting was conducted as described previously. Briefly, fresh cell pellets (0.2–0.5 × 10^6/test for AML cell lines) were dissolved directly in 30–60 μL of Laemmli sample buffer 1× (1.5 M Tris-HCl pH 6.8, glycerol, β-mercaptoethanol, SDS, bromophenol blue) and boiled at 95 °C for 5 min. The proteins were separated by SDS-polyacrylamide gel electrophoresis (SDS-PAGE) on Precast 4–15% gradient gels (Biorad, Hercules, CA, USA) transferred onto nitrocellulose membranes (GE Healthcare, Piscataway, NJ, USA) and probed with specific primary antibodies followed by horseradish peroxidase-conjugated secondary antibodies (GE Healthcare Lifesciences). The polypeptides were visualized using enhanced chemiluminescence (Luminata Crescendo, Merck Millipore, Burlington, MA, USA) according to the manufacturer’s instructions. The bands were visualized using the Biorad Chemidoc and the images were processed using the image lab software (Biorad) and Adobe Photoshop (Ps CC 2019). β-actin expression levels were used as a control for protein loading, as indicated. […]

[1] = UV-VIS titration assay with increasing MgCl2; format: physicochemical; settings: 100 µM compound, up to 10 mM MgCl2
Experimental: The potential ability of T126 to chelate Mg^2+ ions was evaluated by spectrophotometric methods using a T70+ UV-Vis Spectrometer (PG Instruments, Leicestershire, UK) and a quartz cuvette with a 1 cm optical path. MgCl2. 5H2O 1M solution was prepared from powder (VWR International, Milan, Italy). The compound T126 was dissolved in DMSO to a final concentration of 10 mM and diluted with a milliQ water/DMSO mixture to a final concentration of 100 µM (4% DMSO). The obtained solution was placed in a cuvette and the UV-Vis spectra was recorded between 200 and 500 nm using water milliQ (with 4% DMSO) as reference. Thereafter, small volumes of MgCl2 aqueous solution were added both in the sample and in the reference cuvettes to obtain a series of solutions containing increasing concentrations of MgCl2 (1.25, 2.5, 5 and 10 mM), carefully pipetted for mixing, and the UV-Vis spectra were repeated. Each experiment was performed in triplicate.

[2] = Intrinsic fluorescence assay; format: physicochemical; settings: excitation/emission 485–535 nm, AKT1 assay buffer, 2 h 37 °C
Experimental: Compound T126 was serially diluted in 384-well black plates with Hepes 100 mM, DMSO 4%, Brij 0.003%, Tween 20 0.004%, MgCl2 10 mM, at a pH = 7.5 and incubated for 2 h at 37 °C. After the incubation time the intensity of fluorescence (λexc: 485 nm; λemm: 535 nm) was detected in a Tecan M1000 Pro.

IMS-M2 = test: Cell growth, viable cell count by trypan blue exclusion; format: cell-based, human; settings: IMS-M2, 5 µM, at 48 and 72 h
[3] = tested on: phospho-AKT, at site S473; test: Western blot of AKT signaling pathway in AML cell lines; format: cell-based, human
Experimental: (§1) Immunoblotting was conducted as described previously. Briefly, fresh cell pellets (0.2–0.5 × 10^6/test for AML cell lines) were dissolved directly in 30–60 μL of Laemmli sample buffer 1× (1.5 M Tris-HCl pH 6.8, glycerol, β-mercaptoethanol, SDS, bromophenol blue) and boiled at 95 °C for 5 min. The proteins were separated by SDS-polyacrylamide gel electrophoresis (SDS-PAGE) on Precast 4–15% gradient gels (Biorad, Hercules, CA, USA) transferred onto nitrocellulose membranes (GE Healthcare, Piscataway, NJ, USA) and probed with specific primary antibodies followed by horseradish peroxidase-conjugated secondary antibodies (GE Healthcare Lifesciences). The polypeptides were visualized using enhanced chemiluminescence (Luminata Crescendo, Merck Millipore, Burlington, MA, USA) according to the manufacturer’s instructions. The bands were visualized using the Biorad Chemidoc and the images were processed using the image lab software (Biorad) and Adobe Photoshop (Ps CC 2019). β-actin expression levels were used as a control for protein loading, as indicated.
(§2) The primary antibodies used for western blot analyses are the following: mouse monoclonal anti-human β-actin (Clone AC-15; dilution 1:5000) from Sigma Aldrich (St. Louis, MO, USA); rabbit monoclonal anti-human Cleaved poly (ADP-ribose) polymerase (c-PARP) (Clone Asp 214; dilution 1:1000); rabbit monoclonal phospho-Akt (Ser473) (clone D9E, dilution 1.500); rabbit polyclonal phospho-mTOR (Ser2448) (dilution 1:500); rabbit polyclonal phospho-4E-BP1 (Ser65) (dilution 1:500); rabbit monoclonal Akt1 (clone D9R8K, dilution 1:500); rabbit polyclonal 4E-BP1 (dilution 1:500); and rabbit polyclonal mTOR (dilution 1:500), all from Cell Signaling (Cell Signaling Technology, Inc., Danvers, MA, USA).

[4] = tested on: E4-BP1 phosphorylation at site S65; test: as above; format: cell-based, human; settings: increasing concentrations (0.5 and 5 µM), 24 and 48 h, OCI-AML3, IMS-M2, OCI-AML2
Experimental: as §1, §2

[5] = tested on: phospho-mTOR, at site S2448; test: as above; format: cell-based, human; settings: increasing concentrations (0.5 and 5 µM), 24 and 48 h, OCI-AML3, IMS-M2, OCI-AML2
Experimental: as §1, §2

[6] = Solubility screen assay to determine chemical aggregation (nephelometry); format: physicochemical; settings: AKT1 assay buffer pH 7.5, 37 °C, 2 h, NEPHELOstar Plus
Experimental: The stock solutions (10–2 M) of the compound T126 were diluted to a decreased molarity, from 100 µM to 0.0001 µM, in 384-well transparent plates (Greiner 781801) with 1% DMSO: 99% buffer Hepes 100 mM, DMSO 4%, Brij 0.003%, Tween 20 0.004%, MgCl2 10 mM, at a pH = 7.5. Incubation occurred at 37 °C and the results were read after 2 h in a NEPHELOstar Plus (BMG LABTECH, Ortenberg, Germany). The results were adjusted to a segmented regression to obtain the maximum concentration in which the compounds were soluble.

ability to chelate Mg^2+ ions [1]: inability of T126 to chelate Mg^2+ ions
intrinsic fluorescence [2]: not fluorescent
concentration up to which no aggregation occurs [6]: ≥ 100 µM
Compound: O=c1[nH]c(-c2ccc(O)c(O)c2)nc2sc3c(c12)CCCC3 [T126]
cleaved-PARP (marker of apoptosis) (cleaved-PARP): detected
cell growth inhibition (IMS-M2): significant cell growth inhibition
inhibition of p-AKT ([3]; OCI-AML3, 4 h, 1 and 2.5 µM): inhibition of p-AKT was already observed
phosphorylation of AKT1 (S473) ([3]; increasing concentrations (0.5 and 5 µM), 24 and 48 h, OCI-AML3, IMS-M2, OCI-AML2): decreased phosphorylation
phosphorylation of 4E-BP1 (S65) [4]: reduction of its phosphorylation levels
phosphorylation of mTOR (S2448) [5]: decreased phosphorylation
